# Laboratory results taken from patent publication US20090286744A1, “Treatment of asthma” (IMMUNEREGEN BIOSCINECES INC., priority 2005, published 2009).
# Ends that are not written are not given here.
# Test system: PARP-1
# Assay: Immunoblotting for PARP-1 in alveolar macrophages pre-treated with JP-8 and substance P
# Type: cell-based
# Conditions: PAM pre-treated with 8 ug/ml of JP-8 and substance P; 24 hours; immunoblotting (FIG. 1)
# Protocol: Alveolar macrophages (PAM) were pre-treated with 8 ug/ml of JP-8 and substance P, or left untreated. After 24 hours, protein was extracted from the PAM and analyzed by immunoblotting for PARP-1, procaspase-3, p53, and GAPDH.
substance,measurement,value
Substance P (RPKPQQFFGLM-NH2; listed as Homo sapiens),PARP-1 expression in alveolar macrophages,causes degradation of PARP-1 expression in alveolar macrophages in a dose-dependent manner
